{"source": "the supplement of paper PMC10307832", "experiment_in_all_cases": "relative viability (nuclei count vs DMSO), 5 days (fraction); higher = more cells survive", "key": {"YM155 + OSI-027": {"compound": "COCC[n+]1c2c(n(Cc3cnccn3)c1C)C(=O)c1ccccc1C2=O [YM155] + COc1cccc2cc(-c3nc([C@H]4CC[C@H](C(=O)O)CC4)n4ncnc(N)c34)[nH]c12 [OSI-027] (partner 0.5 µM)", "summary_of_the_method": "(§1)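 Five library-drug doses in √10 steps were combined with a fixed anchor-drug dose, or a single drug was given alone, by pin tool to lung cancer cell lines in 1536-well plates the day after seeding. Nuclei were stained and counted after 5 days. Relative viability is the nuclei count in treated wells over that in vehicle wells, taken as the median of duplicate plates.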"}, "Quizartinib + AZD7762": {"compound": "CC(C)(C)c1cc(NC(=O)Nc2ccc(-c3cn4c(n3)sc3cc(OCCN5CCOCC5)ccc34)cc2)no1 [Quizartinib] + NC(=O)Nc1cc(-c2cccc(F)c2)sc1C(=O)N[C@H]1CCCNC1 [AZD7762] (partner 0.2 µM)", "summary_of_the_method": "as §1"}, "YM155 + AZD7762": {"compound": "COCC[n+]1c2c(n(Cc3cnccn3)c1C)C(=O)c1ccccc1C2=O [YM155] + NC(=O)Nc1cc(-c2cccc(F)c2)sc1C(=O)N[C@H]1CCCNC1 [AZD7762] (partner 0.2 µM)", "summary_of_the_method": "as §1"}, "Quizartinib + Decitabine": {"compound": "CC(C)(C)c1cc(NC(=O)Nc2ccc(-c3cn4c(n3)sc3cc(OCCN5CCOCC5)ccc34)cc2)no1 [Quizartinib] + Nc1ncn([C@H]2C[C@H](O)[C@@H](CO)O2)c(=O)n1 [Decitabine] (partner 2 µM)", "summary_of_the_method": "as §1"}, "YM155 + Olaparib": {"compound": "COCC[n+]1c2c(n(Cc3cnccn3)c1C)C(=O)c1ccccc1C2=O [YM155] + O=C(c1cc(Cc2n[nH]c(=O)c3ccccc23)ccc1F)N1CCN(C(=O)C2CC2)CC1 [Olaparib] (partner 8 µM)", "summary_of_the_method": "as §1"}, "YM155 + Vorinostat": {"compound": "COCC[n+]1c2c(n(Cc3cnccn3)c1C)C(=O)c1ccccc1C2=O [YM155] + O=C(CCCCCCC(=O)Nc1ccccc1)NO [Vorinostat] (partner 1 µM)", "summary_of_the_method": "as §1"}}, "data": [{"cell line": "NCI-H1648", "values": [{"measurement": "relative viability", "setting": "YM155 + OSI-027; first compound 0.002 µM", "value": 0.283}, {"measurement": "relative viability", "setting": "YM155 + OSI-027; first compound 0.006325 µM", "value": 0.271}, {"measurement": "relative viability", "setting": "YM155 + OSI-027; first compound 0.02 µM", "value": 0.259}, {"measurement": "relative viability", "setting": "YM155 + OSI-027; first compound 0.06325 µM", "value": 0.231}, {"measurement": "relative viability", "setting": "Quizartinib + AZD7762; first compound 0.003162 µM", "value": 0.612}, {"measurement": "relative viability", "setting": "Quizartinib + AZD7762; first compound 0.03162 µM", "value": 0.629}, {"measurement": "relative viability", "setting": "Quizartinib + AZD7762; first compound 0.1 µM", "value": 0.821}, {"measurement": "relative viability", "setting": "YM155 + AZD7762; first compound 0.006325 µM", "value": 0.689}, {"measurement": "relative viability", "setting": "YM155 + AZD7762; first compound 0.02 µM", "value": 0.557}, {"measurement": "relative viability", "setting": "YM155 + AZD7762; first compound 0.06325 µM", "value": 0.634}, {"measurement": "relative viability", "setting": "Quizartinib + Decitabine; first compound 0.003162 µM", "value": 0.461}, {"measurement": "relative viability", "setting": "Quizartinib + Decitabine; first compound 0.03162 µM", "value": 0.548}, {"measurement": "relative viability", "setting": "Quizartinib + Decitabine; first compound 0.1 µM", "value": 0.745}, {"measurement": "relative viability", "setting": "YM155 + Olaparib; first compound 0.006325 µM", "value": 1.06}, {"measurement": "relative viability", "setting": "YM155 + Olaparib; first compound 0.02 µM", "value": 0.6}, {"measurement": "relative viability", "setting": "YM155 + Olaparib; first compound 0.06325 µM", "value": 0.762}, {"measurement": "relative viability", "setting": "YM155 + Vorinostat; first compound 0.006325 µM", "value": 0.386}, {"measurement": "relative viability", "setting": "YM155 + Vorinostat; first compound 0.02 µM", "value": 0.565}, {"measurement": "relative viability", "setting": "YM155 + Vorinostat; first compound 0.06325 µM", "value": 0.301}]}]}
